Experimental data reported in US20260070945A1, “MACROCYCLIC IMMUNOMODULATORS” (Bristol-Myers Squibb Company, priority 2022, published 2026).
Where two headings read alike, the source gives them in different places. Where a SMILES comes first, the peptide text is derived from it. Bridges are numbered along the chain shown (N, C = ends). [ ]: non-standard residue; d: D form. The star is where a group is joined. ξ: configuration not given here. Phe(3-CF3) = N[C@@H](Cc1cccc(C(F)(F)F)c1)C(=O)O; Phe(4-COOH) = N[C@@H](Cc1ccc(C(=O)O)cc1)C(=O)O; Bip = N[C@@H](Cc1ccc(-c2ccccc2)cc1)C(=O)O; Phe(3-Me) = Cc1cccc(C[C@H](N)C(=O)O)c1; NH(CH2)12COOH = O=C(O)CCCCCCCCCCCCN*; Val(3-OH) = CC(C)(O)[C@H](N)C(=O)O; hArg = N=C(N)NCCCC[C@H](N)C(=O)O; Cha = N[C@@H](CC1CCCCC1)C(=O)O; Ile(3ξ) = CCC(C)[C@H](N)C(=O)O; Thr(3ξ) = CC(O)[C@H](N)C(=O)O; Carboxymethyl = O=C(O)C*; NMeA = CN[C@@H](C)C(=O)O; Aun = NCCCCCCCCCCC(=O)O; Dab = NCC[C@H](N)C(=O)O; AEEA = NCCOCCOCC(=O)O

Target: T1, PD-1/PD-L1 interaction (PE-labeled human PD-L1-Ig binding to Jurkat cell line over-expressing human PD-1) (Homo sapiens, UniProt Q15116)
T1 construct: expressed in transfected cells; host or cells: Jurkat
Test: Jurkat-PD-1 Cell Binding High-Content Screening Assay (CBA)
How it was run: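 High-content imaging read-out of PE-PD-L1-Ig binding (20 nM final, 1 h) to Jurkat-hPD-1 cells, after 2 h compound exposure at 37 °C in DMEM with 10% FCS. Nuclei counterstained with Hoechst 33342 after paraformaldehyde fixation.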

[1] = PE-labeled PD-L1-Ig 20 nM final, Jurkat-hPD-1 cells; read-out: Jurkat HPD1 PDL1 IC50

T1 sequence (Q15116 25-288): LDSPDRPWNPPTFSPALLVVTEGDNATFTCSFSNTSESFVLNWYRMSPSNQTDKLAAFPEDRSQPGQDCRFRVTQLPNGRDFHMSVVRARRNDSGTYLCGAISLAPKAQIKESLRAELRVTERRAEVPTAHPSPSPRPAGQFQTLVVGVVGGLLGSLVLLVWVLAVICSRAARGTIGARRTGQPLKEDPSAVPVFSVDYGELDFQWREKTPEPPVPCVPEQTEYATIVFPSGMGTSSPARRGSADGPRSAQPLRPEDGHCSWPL

IC50 [1]	IC50 (Jurkat-hPD-1 cells, PE-labeled PD-L1-Ig 20 nM final; read-out: Jurkat HPD1 PDL1 IC50)	SMILES
20.2 nM	–	Cc1cccc(C[C@@H]2NC(=O)[C@H](CC(=O)O)NC(=O)[C@H](Cc3ccc(C(=O)O)cc3)NC(=O)[C@H](C(C)O)NC(=O)CSC[C@@H](C(=O)N[C@@H](CCN)C(=O)NCCOCCOCC(=O)NCCCCCCCCCCC(=O)O)NC(=O)[C@H](CCC(=O)O)NC(=O)[C@H](C(C)O)NC(=O)[C@H](CC3CCCCC3)NC(=O)[C@H](CCN)NC(=O)[C@@H](CC(C)C)NC(=O)[C@H](C)N(C)C(=O)[C@H](Cc3ccc(C(=O)O)cc3)NC(=O)[C@H](Cc3ccc(-c4ccccc4)cc3)NC(=O)[C@H](Cc3ccc(C(=O)O)cc3)NC2=O)c1 (stereo partly drawn) [Example 2555] ({CH2CO}-[Thr(3ξ)][Phe(4-COOH)]D[Phe(3-Me)][Phe(4-COOH)][Bip][Phe(4-COOH)][NMeA][dL][Dab][Cha][Thr(3ξ)]EC[Dab][AEEA][Aun]-OH; thioether N-14)
62.9 nM	–	CC(C)C[C@H]1NC(=O)[C@H](C)N(C)C(=O)[C@H](Cc2ccc(C(=O)O)cc2)NC(=O)[C@H](Cc2ccc(-c3ccccc3)cc2)NC(=O)[C@H](Cc2ccc(C(=O)O)cc2)NC(=O)[C@H](Cc2cccc(C(F)(F)F)c2)NC(=O)[C@H](CC(=O)O)NC(=O)[C@H](Cc2ccc(C(=O)O)cc2)NC(=O)[C@H](C(C)O)NC(=O)CSC[C@@H](C(=O)N[C@@H](CCN)C(=O)NCCOCCOCC(=O)NCCCCCCCCCCCCC(=O)O)NC(=O)[C@H](CC(=O)O)NC(=O)[C@H](C(C)C)NC(=O)[C@H](CC2CCCCC2)NC(=O)[C@H](CCN)NC1=O (stereo partly drawn) [Example 2612] ({CH2CO}-[Thr(3ξ)][Phe(4-COOH)]D[Phe(3-CF3)][Phe(4-COOH)][Bip][Phe(4-COOH)][NMeA][dL][Dab][Cha]VDC[Dab][AEEA]-{NH(CH2)12COOH}; thioether N-14)
–	40.2 nM	CCC(C)[C@@H]1NC(=O)[C@H](Cc2ccc(-c3ccccc3)cc2)NC(=O)[C@H](CC(C)C)NC(=O)[C@H](Cc2c[nH]c3ccccc23)NC(=O)[C@H](CC(=O)O)NC(=O)[C@H](Cc2ccc(OCC(=O)O)cc2)NC(=O)[C@H](CCCCNC(=N)N)NC(=O)CSC[C@@H](C(=O)NCCOCCOCC(=O)N[C@@H](CCN)C(=O)NCCCCCCCCCCC(=O)O)NC(=O)[C@H](CCCCN)NC(=O)[C@H](C(C)C)NC(=O)[C@H](CC2CCCCC2)NC(=O)[C@H](CCN)NC(=O)[C@@H](C)NC(=O)[C@H](C)N(C)C1=O (some centres unmarked) [Example 2185] ({CH2CO}-[hArg]Y(Carboxymethyl)DWL[Bip][Ile(3ξ)][NMeA][dA][Dab][Cha]VKC[AEEA][Dab][Aun]-OH; thioether N-14)
14.3 nM	–	Cc1cccc(C[C@@H]2NC(=O)[C@H](CC(=O)O)NC(=O)[C@H](Cc3ccc(OCC(=O)O)cc3)NC(=O)[C@H](CCN)NC(=O)CSC[C@@H](C(=O)N[C@@H](CCN)C(=O)NCCOCCOCC(=O)NCCOCCOCC(=O)NCCCCCCCCCCC(=O)O)NC(=O)[C@H](CCC(=O)O)NC(=O)[C@H](C(C)(C)O)NC(=O)[C@H](CC3CCCCC3)NC(=O)[C@H](CCN)NC(=O)[C@@H](CC(C)C)NC(=O)[C@H](C)N(C)C(=O)[C@H](Cc3ccc(C(=O)O)cc3)NC(=O)[C@H](Cc3ccc(-c4ccccc4)cc3)NC(=O)[C@H](Cc3ccc(C(=O)O)cc3)NC2=O)c1 [Example 2518] ({CH2CO}-[Dab]Y(Carboxymethyl)D[Phe(3-Me)][Phe(4-COOH)][Bip][Phe(4-COOH)][NMeA][dL][Dab][Cha][Val(3-OH)]EC[Dab][AEEA][AEEA][Aun]-OH; thioether N-14)
33.8 nM	–	CC(C)C[C@@H]1NC(=O)[C@H](Cc2c[nH]c3ccccc23)NC(=O)[C@H](CC(=O)O)NC(=O)[C@H](Cc2ccc(C(=O)O)cc2)NC(=O)[C@H](Cc2ccc(OCC(=O)O)cc2)NC(=O)CSC[C@@H](C(=O)NCCOCCOCC(=O)NCCCCCCCCCCC(=O)O)NC(=O)[C@H](Cc2cnc[nH]2)NC(=O)[C@H](C(C)C)NC(=O)[C@H](CC2CCCCC2)NC(=O)[C@H](CCN)NC(=O)[C@@H](CC(C)C)NC(=O)[C@H](C)N(C)C(=O)[C@H](C(C)C)NC(=O)[C@H](Cc2ccc(-c3ccccc3)cc2)NC1=O [Example 2441] ({CH2CO}-Y(Carboxymethyl)[Phe(4-COOH)]DWL[Bip]V[NMeA][dL][Dab][Cha]VHC[AEEA][Aun]-OH; thioether N-14)
